Test results as given in patent publication US8501713B2, “Drug combinations for the treatment of duchenne muscular dystrophy” (Summit Corporation PLC, priority 2007, dated 2013).

Tested on: Utrophin A promoter linked to a luciferase reporter gene
Assay: Luciferase reporter assay (murine H2K cells)
Type: cell-based
Settings: for activity at 10 µM: Mus musculus, H2K mdx, read-out: Activity
Description: 1. Luciferase Reporter Assay (Murine H2K Cells)
The cell line used for the screen is an immortalized mdx mouse H2K cell line that has been stably transfected with a plasmid containing […] fragment of the Utrophin A promoter including the first untranslated exon linked to a luciferase reporter gene. Under conditions of low temperature and interferon containing media, the cells remain as myoblasts. These are plated into 96 well plates and cultured in the presence of compound for three days. The level of luciferase is then determined by cell lysis and reading of the light output from the expressed luciferase gene utilising a plate luminometer.
H2K/mdx/Utro A reporter Cell Line Maintenance
The cells were grown at 33° C. in the presence of 10% CO2. To remove the myoblasts for platting, they were incubated with Trypsin EDTA until the monolayer started to detach.
The plates were then incubated at 33° C. in the presence of 10% CO2 for 24 hrs. Compounds were dosed by adding 10 μl of diluted compound to each well giving a final concentration of 10 μM. The plates were then incubated for a further 48 hrs. Cells were then lysed in situ following the manufacture's protocols (Promega Steady-Glo Luciferase Assay System (E2520). Then counted for 10 seconds using a plate luminometer (Victor1420).
Compounds for screening were stored at −20° C. as 10 mM stocks in 100% DMSO until required.
Biological activity as assessed using the luciferase reporter assay in murine H2K cells, and is classified as follows: […]

[1] = luciferase level relative to control, H2K/mdx/Utro A reporter cells, compound 10 μM final concentration
[2] = luciferase reporter assay in murine H2K cells, classified relative to control

SMILES	activity at 10 µM [1]	Activity [2]	also measured
Nc1ccc2sc(-c3cccc(Cl)c3Cl)nc2c1 [Example 307, 2-(2,3-dichlorophenyl)benzo[d]thiazol-5-amine]	301 to 400%		
CC(=O)Nc1ccc2oc(-c3ccc(Cl)cc3Cl)nc2c1 [Example 517]		++ (Between 201% and 300% relative to control)	
Cc1ccc(-c2nc3ncccc3o2)cc1 [Example 158, 2-p-tolyloxazolo[4,5-b]pyridine]	< 200%		
Nc1ccc2oc(-c3ccc4cc(Br)ccc4c3)nc2c1 [Example 405, 2-(6-bromonaphthalen-2-yl)benzo[d]oxazol-5-amine]	< 200%		
Oc1ccccc1-c1nc2ccccc2s1 [Example 483]		+ (Up to 200% relative to control)	
Cl.Cl.Nc1ccc2[nH]c(-c3ccco3)nc2c1 [Example 510]		+ (Up to 200% relative to control)	
Nc1ccc2oc(-c3ccccc3O)nc2c1 [Example 38, 2-(5-aminobenzo[d]oxazol-2-yl)phenol]	301 to 400%		
Cc1ccc(-c2nc3cc(NC(=O)c4ccco4)ccc3o2)cc1 [Example 119, N-(2-p-tolylbenzo[d]oxazol-5-yl)furan-2-carboxamide]	< 200%		
Cc1cc2nc(-c3cc(N)ccc3O)oc2cc1C [Example 559]		+++ (Between 301% and 400% relative to control)	
CC(C)C(=O)Nc1ccc2oc(-c3ccccc3F)nc2c1 [Example 243, N-(2-(2-fluorophenyl)benzo[d]oxazol-5-yl)isobutyramide]	301 to 400%		
Cc1cc2oc(C(=O)NCc3ccncc3)c(C)c2cc1C [Example 656]		+++ (Between 301% and 400% relative to control)	
CC(C)C(=O)Nc1ccc2oc(C3CCCC3)nc2c1 [Example 364, N-(2-cyclopentylbenzo[d]oxazol-5-yl)isobutyramide]	< 200%		
CCN(CC)c1ccc(-c2nc3cc(NC(=O)c4ccc(C)cc4)ccc3o2)cc1 [Example 64, N-(2-(4-(diethylamino)phenyl)benzo[d]oxazol-5-yl)-4-methylbenzamide]	< 200%		
O=C(O)c1cccc(-c2ccc3oc(-c4ccc(Cl)cc4)nc3c2)c1 [Example 313, 3-(2-(4-chlorophenyl)benzo[d]oxazol-5-yl)benzoic acidd]			Activity [1]: + (Up to 200% relative to control)
O=C(Nc1ccc2oc(-c3cccnc3)nc2c1)c1ccco1 [Example 57, N-(2-(pyridin-3-yl)benzo[d]oxazol-5-yl)furan-2-carboxamide]	< 200%		
Cc1cc2nc(-c3cc(N)ccc3Cl)oc2cc1C [Example 646]		+++ (Between 301% and 400% relative to control)	
CC(C)S(=O)(=O)c1ccc2oc(-c3ccc(Cl)c(Cl)c3)nc2c1 [Example 434, 2-(3,4-dichlorophenyl)-5-(isopropylsulfonyl)benzo[d]oxazole]	301 to 400%		
O=C(Nc1ccc(-c2nc3ccccc3s2)cc1)C1CCCO1 (stereo not drawn) [Example 680]		++ (Between 201% and 300% relative to control)	
CC(O)c1ccc2oc(-c3ccc(Cl)cc3)nc2c1 (stereo not drawn) [Example 446, 2-(4′-chlorophenyl)-5-(1′-hydroxyethyl)-benzoxazole]	> 401%		
Nc1ccc2sc(-c3ccccc3Cl)nc2c1 [Example 282, 2-(2-chlorophenyl)benzo[d]thiazol-5-amine]	> 401%		
O=C(Nc1ccc2oc(-c3ccc4ccccc4c3)nc2c1)c1cccs1 [Example 385, N-(2-(naphthalen-2-yl)benzo[d]oxazol-5-yl)thiophene-2-carboxamide]	< 200%		
O=C(Nc1ccc2oc(-c3cccnc3)nc2c1)c1ccc(F)cc1 [Example 48, 4-fluoro-N-(2-(pyridin-3-yl)benzo[d]oxazol-5-yl)benzamide]	< 200%		
COc1ccc(-c2nc3ccccc3o2)cc1N [Example 619]		++++ (Above 401% relative to control)	
CC(C)C(=O)Nc1ccc2oc(-c3cccc(N(C)C)c3)nc2c1 [Example 204, N-(2-(3-(dimethylamino)phenyl)benzo[d]oxazol-5-yl)isobutyramide]	> 401%		
Cc1ccc(C)c(OCc2nc3ccccc3[nH]2)c1 [Example 548]		+ (Up to 200% relative to control)	
O=C(Nc1ccc2oc(-c3cccnc3)nc2c1)c1ccccc1 [Example 39, N-(2-(pyridin-3-yl)benzo[d]oxazol-5-yl)benzamide]	< 200%		
CC(C)C(=O)Nc1ccc2ccn(C)c2c1 [Example 378, N-(1-methyl-1H-indol-6-yl)isobutyramide]	< 200%		

SMILES	activity at 10 µM [1]	Activity [2]	also measured
Cc1ccc2nc(-c3ccc(N)cc3)oc2c1 [Example 506]		+ (Up to 200% relative to control)	
O=C(Nc1cccc(-c2nc3ccccc3[nH]2)c1)c1cccs1 [Example 504]		+ (Up to 200% relative to control)	
O=C(CCc1ccccc1)Nc1ccc2oc(-c3cccnc3)nc2c1 [Example 51, 3-phenyl-N-(2-(pyridin-3-yl)benzo[d]oxazol-5-yl)propanamide]	< 200%		
CC(C)C(=O)Nc1ccc2sc(-c3ccc(Cl)c(Cl)c3)nc2c1 [Example 297, N-(2-(3,4-dichlorophenyl)benzo[d]thiazol-5-yl)isobutyramide]	> 401%		
CC(C)C(=O)Nc1ccc2oc(C3CCCCC3)nc2c1 [Example 248, N-(2-cyclohexylbenzo[d]oxazol-5-yl)isobutyramide]	> 401%		
CC(C)C(=O)Nc1ccc2oc(-c3cccc4ccccc34)nc2c1 [Example 410, N-(2-(naphthalen-1-yl)benzo[d]oxazol-5-yl)isobutyramide]	< 200%		
CCS(=O)(=O)c1ccc2oc(-c3ccc(C4CCCCC4)cc3)nc2c1 [Example 425, 2-(4-cyclohexylphenyl)-5-(ethylsulfonyl)benzo[d]oxazole]	< 200%		
CC(C)NC(=S)c1ccc2oc(-c3ccc(Cl)cc3)nc2c1 [Example 274, 2-(4-chlorophenyl)-N-isopropylbenzo[d]oxazole-5-carbothioamide]	< 200%		
Cc1cc2nc(-c3ccc(Cl)cc3Cl)oc2cc1C [Example 224, 2-(2,4-dichlorophenyl)-5,6-dimethylbenzo[d]oxazole]	> 401%		
Nc1ccc2nc(-c3ccccc3)oc2c1 [Example 155, 2-phenylbenzo[d]oxazol-6-amine]	301 to 400%		
Cc1ccc(-c2nc3cc(C(N)=O)ccc3o2)cc1 [Example 218, 2-p-tolylbenzo[d]oxazole-5-carboxamide]	> 401%		
CC(C)C(=O)Nc1ccc2oc(-c3ccc(Cl)cc3Cl)nc2c1 [Example 257, N-(2-(2,4-dichlorophenyl)benzo[d]oxazol-5-yl)isobutyramide]	< 200%		
CC(=O)Nc1ccc(-c2nc3ccccc3[nH]2)cc1 [Example 591]		+++ (Between 301% and 400% relative to control)	
Clc1ccc(-c2nc3cc(-c4ccc(N5CCOCC5)cc4)ccc3o2)cc1 [Example 291, 2-(4-chlorophenyl)-5-(4-morpholinophenyl)benzo[d]oxazole]	201 to 300%		
O=C(Nc1ccc(-c2nc3ccccc3s2)cc1)C1CC1 [Example 661]		+++ (Between 301% and 400% relative to control)	
CCN(CC)c1ccc(-c2nc3cc(NC(=O)C(C)C)ccc3o2)cc1 [Example 78, N-(2-(4-(diethylamino)phenyl)benzo[d]oxazol-5-yl)isobutyramide]	< 200%		
Nc1ccc2oc(-c3ccc(N4CCCC4)cc3)nc2c1 [Example 149, 2-(4-(pyrrolidin-1-yl)phenyl)benzo[d]oxazol-5-amine]	201 to 300%		
CC(C)C(=O)Nc1ccc2oc(-c3cc(Cl)cc(Cl)c3)nc2c1 [Example 271, N-(2-(3,5-dichlorophenyl)benzo[d]oxazol-5-yl)isobutyramide]	201 to 300%		
CC(C)C(=O)Nc1ccc2oc(-c3ccc(-c4ccccc4)cc3)nc2c1 [Example 411, N-(2-(biphenyl-4-yl)benzo[d]oxazol-5-yl)isobutyramide]	< 200%		
CSc1ccc2nc(-c3ccc(Cl)cc3)sc2c1 [Example 399, 2-(4-chlorophenyl)-6-(methylthio)benzo[d]thiazole]	301 to 400%		
O=C(Nc1ccc2oc(-c3ccccc3)nc2c1)c1ccc(-c2ccccc2)cc1 [Example 32, N-(2-phenylbenzo[d]oxazol-5-yl)biphenyl-4-carboxamide]	< 200%		
Nc1cccc(-c2nc3cc(Cl)ccc3o2)c1 [Example 622]		++++ (Above 401% relative to control)	
CN(C)c1ccc(C(=O)Nc2ccc3oc(-c4ccc(Cl)cc4)nc3c2)cc1 [Example 93, N-(2-(4-chlorophenyl)benzo[d]oxazol-5-yl)-4-(dimethylamino)benzamide]	< 200%		
Cc1ccc2[nH]c(-c3ccc(N)cc3)nc2c1 [Example 532]		+ (Up to 200% relative to control)	
Cc1ccc2nc(-c3ccc(C(F)(F)F)cc3)oc2c1 [Example 611]		+++ (Between 301% and 400% relative to control)	
Cc1ccc(-c2nc3cc(Br)ccc3o2)cc1 [Example 198, 5-bromo-2-p-tolylbenzo[d]oxazole]	301 to 400%		
O=C(Nc1ccc(-c2nc3ccccc3[nH]2)cc1)c1ccc2c(c1)OCO2 [Example 540]		+ (Up to 200% relative to control)	
